ChEMBL document CHEMBL1148997, “Stereochemical considerations in relation to the pharmacological activity of Pterotaberna alkaloids” (J Nat Prod, 1985)
Calls of active or inactive are those of the source. The rule behind the calls is not given here.

How the values were obtained:
Ileum [1] = assay: Antihistaminic effect in guinea pig ileum assessed as inhibition of histamine-induced contraction by Schild plot; assay type: functional, tissue-based; details: Cavia porcellus, read-out: pA2 (converted)
Ileum [2] = assay: Anticholinergic effect in guinea pig ileum assessed as inhibition of acetylcholine-induced contraction; assay type: functional
Ileum [3] = assay: Inhibition of electrically-induced twitch contraction in guinea pig ileum at 3.4 uM; assay type: functional, tissue-based; details: Cavia porcellus
Ileum [4] = assay: Inhibition of electrically-induced twitch contraction in guinea pig ileum at 1 ug/ml after 15 mins; assay type: functional; details: Cavia porcellus, 0.25 h
Ileum [5] = assay: Inhibition of electrically-induced twitch contraction in guinea pig ileum at 3.2 uM; assay type: functional, tissue-based; details: Cavia porcellus
Ileum [6] = assay: Antihistaminic effect in guinea pig ileum assessed as inhibition of histamine-induced contraction; assay type: functional, Cavia porcellus
Ileum [7] = assay: Anticholinergic effect in guinea pig ileum assessed as inhibition of acetylcholine-induced contraction at 1 uM; assay type: functional, tissue-based; details: Cavia porcellus
Ileum [8] = assay: Anticholinergic effect in guinea pig ileum assessed as inhibition of acetylcholine-induced contraction at 3.4 uM; assay type: functional, tissue-based; details: Cavia porcellus
Ileum [9] = assay: Inhibition of electrically-induced twitch contraction in guinea pig ileum at 1 uM; assay type: functional, tissue-based; details: Cavia porcellus
Ileum [10] = assay: Inhibition of electrically-induced twitch contraction in guinea pig ileum at 3.4 uM preincubated for 15 mins before addition of naloxone in presence of naloxone; assay type: functional, tissue-based; details: Cavia porcellus
Ileum [11] = assay: Antihistaminic effect in guinea pig ileum assessed as inhibition of histamine-induced contraction at 34 uM; assay type: functional, tissue-based; details: Cavia porcellus
Intestine = assay: Anticholinergic effect in rat intestine assessed as inhibition of acetylcholine-induced contraction; assay type: functional, tissue-based; details: read-out: pA2 (converted)

C/C=C1/CN(C)C[C@@H]2Cc3c([nH]c4ccccc34)C(=O)C[C@@H]12
Kb (Ileum [1]): 282 nM
Activity (Ileum [2]; Cavia porcellus): inactive
Activity (Ileum [3]): Active
inhibition at 1 µg/mL (Ileum [4]): 20%

C/C=C1/CN(C)C[C@H]2C(=O)c3c([nH]c4ccccc34)C(=O)C[C@@H]12
Activity (Ileum [5]): inactive

C/C=C1/C[N+](C)([O-])C[C@H]2Cc3c([nH]c4ccccc34)C(=O)C[C@@H]12 (stereo partly specified)
Activity (Ileum [5]): inactive

C/C=C1/CN(C)C[C@H]2Cc3c([nH]c4ccccc34)C(=O)C[C@@H]12 [METHUENINE]
pD2 (Ileum [6]): 5.13
Activity (Ileum [7]): Active
Activity (Ileum [8]): Active
pD2 (Ileum [2]): 5.1
Activity (Ileum [9]): Active
Activity (Ileum [3]): Active
Activity (Ileum [10]): Active
Activity (Ileum [11]): Active

COc1ccc(Cc2nccc3cc(OC)c(OC)cc23)cc1OC [PAPAVERINE]
pD2 (Ileum [2]): 5.08
Kb (Intestine): 15.8 µM
